# Measurements reported in patent US20250243196A1, “CITRON KINASE INHIBITORS” (The Cleveland Clinic Foundation, priority 2021, published 2025).
# pIC50: −log10 of the molar value.
# How the values were obtained:
# Citron kinase [1] = molecular target: T1, Citron kinase (Homo sapiens (Human), UniProt O14578); assay: Radiometric citron kinase assay (Eurofins Cat #16-040KP); format: biochemical
# Procedure, shortened: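 Radiometric KinaseProfiler format: test compound incubated with kinase, substrate, cofactors and radiolabelled ATP; unreacted ATP washed away and radiolabelled phosphate incorporated into substrate measured. IC50 derived from inhibition of phosphorylation. Values are means of at least two independent assays.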
# [2] = molecular target: NanoLuc-CITK (full-length human CITK) (Homo sapiens (Human), UniProt O14578); assay: NanoBRET intracellular target engagement assay; format: cell-based
# Experimental: In-cell Kd values were evaluated with a NanoBRET Target Engagement Assay essentially as recommended by the manufacturer (Promega Corporation—for details see https://www.promega.com/resources/technologies/nanoluc-luciferase-enzyme/cellular-target-engagement/).
# HEK293T cells were transfected with 5.0 μg/mL sterile NanoLuc-CITK DNA, 5.0 μg/mL Transfection Carrier DNA, and 30 μL/mL FugeneHD® (Promega) in Opti-Mem™ (Thermo) media at a cell density of 250,000 cells/mL. […] 5 μL of the 25× Tracer K10 solution was added to each well. Next, designated inhibitors were prepared from powder as 10 mM DMSO stocks and then further diluted to 10× the final assay concentration in Opti-Mem™. 12-pt dose-response curves were prepared by 3×-serial dilution. […] A 3× Complete Substrate+Inhibitor solution, containing 6 mL of Opti-Mem™, 36 μL of NanoBRET Nano-Glo Substrate, and 12 μL Extracellular NanoLuc Inhibitor was freshly prepared for each plate. 50 μL of the 3× Complete Substrate+Inhibitor solution was added to all wells and the plate was incubated for 2 min with 500 RPM shaking. The bottom of the plates were covered with black plate seals and then measured on a Cytation 5 plate reader (Biotek) with a NanoBRET Filter Cube (Biotek; 450/50 emission & 610LP emission). Background corrected BRET ratios (in mBU) were calculated in Excel and IC50's were subsequently extracted using four-parameter non-linear regression in GraphPad Prism 8.
# TRK-B = TRK-B (Homo sapiens (Human), UniProt Q16620); assay: KinaseProfiler radiometric assay (14-507KP); format: biochemical; settings: mean of at least two independent experiments
# Text: (§1) In another aspect, disclosed is a method of inhibiting citron kinase in a sample, comprising contacting the sample with a compound described herein (e.g., a compound of formula (I) or a pharmaceutically acceptable salt thereof), or a pharmaceutical composition described herein (e.g., a pharmaceutical composition comprising a compound of formula (I) or a pharmaceutically acceptable salt thereof), in an amount effective to inhibit citron kinase. In some embodiments, the step of contacting the sample with the compound comprises administering the compound to a subject (e.g., a subject) suffering from cancer. Methods of determining kinase inhibition are well known in the art. For example, kinase activity of an enzyme and the inhibitory capacity of a test compound can be determined by measuring enzyme specific phosphorylation of a substrate. Commercial assays and kits can be employed. For example, kinase inhibition can be determined using a radiometric binding assay, such as using KinaseProfiler™ technology (Eurofins Discovery). This assay method directly detects product formation without the use of modified substrates or coupling enzymes. Test compounds are incubated with kinase, substrate, required cofactors and radioisotope labeled ATP. Following incubation, unreacted radioactive ATP is removed by washing and incorporation of the radiolabeled phosphate into the kinase substrate is assayed to detect phosphoryltransferase activity, which is directly proportional to the amount of phosphorylated substrate. Inhibition of the kinase by a kinase inhibitor prevents phosphorylation of the substrate and thereby limits the incorporation of radiolabeled phosphate. Such an assay is compatible with a microwell assay format, allowing simultaneous determination of IC50 of multiple compounds.
# (§2) The effect of various compounds on the inhibition of other kinases has also been determined. Table 2 reports measured IC50 values; value units are nanomolar inhibition.
# PKAα = PKAα (Homo sapiens (Human), UniProt P17612); assay: KinaseProfiler radiometric assay (14-440KP); format: biochemical; settings: mean of at least two independent experiments
# Text: as §1, §2
# ROCK-1 = ROCK-1 (Homo sapiens (Human), UniProt Q13464); assay: KinaseProfiler radiometric assay (14-601KP); format: biochemical; settings: mean of at least two independent experiments
# Chain of ROCK-1 (Q13464 whole entry): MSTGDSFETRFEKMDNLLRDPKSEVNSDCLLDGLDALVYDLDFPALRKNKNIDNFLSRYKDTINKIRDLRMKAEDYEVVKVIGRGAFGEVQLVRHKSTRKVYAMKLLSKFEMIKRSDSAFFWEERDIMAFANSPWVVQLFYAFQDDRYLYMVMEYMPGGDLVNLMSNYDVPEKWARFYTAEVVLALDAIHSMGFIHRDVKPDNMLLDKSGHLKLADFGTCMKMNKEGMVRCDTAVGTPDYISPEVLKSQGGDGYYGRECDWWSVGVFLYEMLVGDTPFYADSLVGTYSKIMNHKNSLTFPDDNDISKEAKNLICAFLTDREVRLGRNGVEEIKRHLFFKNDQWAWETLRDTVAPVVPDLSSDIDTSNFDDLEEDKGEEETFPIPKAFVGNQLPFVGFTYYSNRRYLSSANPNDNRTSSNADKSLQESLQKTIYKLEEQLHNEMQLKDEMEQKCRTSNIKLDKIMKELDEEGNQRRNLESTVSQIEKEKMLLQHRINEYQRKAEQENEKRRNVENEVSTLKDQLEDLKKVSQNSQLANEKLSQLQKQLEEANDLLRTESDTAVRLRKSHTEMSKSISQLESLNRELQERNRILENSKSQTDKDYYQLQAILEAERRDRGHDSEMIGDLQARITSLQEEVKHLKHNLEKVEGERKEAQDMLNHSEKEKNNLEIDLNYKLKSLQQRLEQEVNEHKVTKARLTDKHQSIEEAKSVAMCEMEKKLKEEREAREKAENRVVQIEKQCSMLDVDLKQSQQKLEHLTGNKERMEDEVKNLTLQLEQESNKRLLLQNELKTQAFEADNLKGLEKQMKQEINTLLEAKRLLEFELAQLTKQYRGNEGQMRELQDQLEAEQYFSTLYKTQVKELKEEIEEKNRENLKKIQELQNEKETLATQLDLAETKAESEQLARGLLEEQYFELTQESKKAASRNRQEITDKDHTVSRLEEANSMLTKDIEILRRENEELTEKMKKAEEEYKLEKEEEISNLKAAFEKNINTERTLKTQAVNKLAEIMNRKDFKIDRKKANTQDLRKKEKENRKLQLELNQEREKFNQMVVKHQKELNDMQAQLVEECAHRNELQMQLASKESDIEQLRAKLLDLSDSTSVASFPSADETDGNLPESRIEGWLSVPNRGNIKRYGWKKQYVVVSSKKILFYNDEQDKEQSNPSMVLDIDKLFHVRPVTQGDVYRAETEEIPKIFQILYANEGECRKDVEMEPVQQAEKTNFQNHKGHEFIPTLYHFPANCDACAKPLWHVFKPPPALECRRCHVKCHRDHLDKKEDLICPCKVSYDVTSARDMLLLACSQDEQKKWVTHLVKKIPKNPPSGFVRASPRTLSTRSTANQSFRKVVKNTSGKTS
# Text: as §1, §2
# ROCK-2 = ROCK-2 (Homo sapiens (Human), UniProt O75116); assay: KinaseProfiler radiometric assay (14-451KP); format: biochemical; settings: mean of at least two independent experiments
# Text: as §1, §2
# IKKβ = IKKβ (Homo sapiens (Human), UniProt O14920); assay: KinaseProfiler radiometric assay (14-485KP); format: biochemical; settings: mean of at least two independent experiments
# Chain of IKKβ (O14920 whole entry): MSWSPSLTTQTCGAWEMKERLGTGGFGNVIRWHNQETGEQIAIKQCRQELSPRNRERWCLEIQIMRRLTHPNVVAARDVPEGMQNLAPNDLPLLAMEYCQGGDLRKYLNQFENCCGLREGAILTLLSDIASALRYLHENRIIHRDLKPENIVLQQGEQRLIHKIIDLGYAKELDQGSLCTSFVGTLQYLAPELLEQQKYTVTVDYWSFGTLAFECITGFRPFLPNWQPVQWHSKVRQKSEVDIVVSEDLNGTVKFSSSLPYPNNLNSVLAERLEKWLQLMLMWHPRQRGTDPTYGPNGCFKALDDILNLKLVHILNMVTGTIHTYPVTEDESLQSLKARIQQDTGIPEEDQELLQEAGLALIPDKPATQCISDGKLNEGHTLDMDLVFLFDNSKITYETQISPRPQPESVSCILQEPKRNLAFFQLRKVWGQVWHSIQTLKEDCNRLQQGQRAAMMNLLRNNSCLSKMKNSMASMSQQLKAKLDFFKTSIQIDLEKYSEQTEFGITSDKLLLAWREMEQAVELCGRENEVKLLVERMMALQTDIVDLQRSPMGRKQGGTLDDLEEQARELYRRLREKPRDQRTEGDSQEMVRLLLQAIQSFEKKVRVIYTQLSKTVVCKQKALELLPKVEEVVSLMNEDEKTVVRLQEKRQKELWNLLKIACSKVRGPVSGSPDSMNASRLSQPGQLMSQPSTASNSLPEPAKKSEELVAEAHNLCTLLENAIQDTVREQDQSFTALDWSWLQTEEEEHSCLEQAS
# Text: as §1, §2
# AUR-B = AUR-B (Homo sapiens (Human), UniProt Q96GD4); assay: KinaseProfiler radiometric assay (14-835KP); format: biochemical; settings: mean of at least two independent experiments
# Chain of AUR-B (Q96GD4 whole entry): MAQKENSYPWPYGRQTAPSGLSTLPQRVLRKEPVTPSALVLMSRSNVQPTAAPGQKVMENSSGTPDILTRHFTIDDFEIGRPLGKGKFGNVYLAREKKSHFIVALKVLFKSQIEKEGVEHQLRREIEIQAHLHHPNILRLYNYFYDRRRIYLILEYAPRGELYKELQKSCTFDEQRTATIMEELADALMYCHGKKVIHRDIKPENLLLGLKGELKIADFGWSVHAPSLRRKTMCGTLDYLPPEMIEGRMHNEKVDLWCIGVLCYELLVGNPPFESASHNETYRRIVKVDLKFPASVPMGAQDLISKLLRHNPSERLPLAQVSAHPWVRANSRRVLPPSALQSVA
# Text: as §1, §2
# Citron kinase [3] = molecular target: T1, Citron kinase; assay: TR-FRET citron kinase assay (Eurofins Cat #2628); format: biochemical; settings: mean of at least two independent assays; read-out: TR-FRET CitK IC50
# Text: Compounds were screened for biochemical kinase activity (Eurofins Discovery, France) using one of two assays. […] All values in Table 1 are the mean of at least two independent assays.
# AKT-1 = AKT-1 (Homo sapiens (Human), UniProt P31749); assay: KinaseProfiler radiometric assay (14-276KP); format: biochemical; settings: mean of at least two independent experiments
# Chain of AKT-1 (P31749 whole entry): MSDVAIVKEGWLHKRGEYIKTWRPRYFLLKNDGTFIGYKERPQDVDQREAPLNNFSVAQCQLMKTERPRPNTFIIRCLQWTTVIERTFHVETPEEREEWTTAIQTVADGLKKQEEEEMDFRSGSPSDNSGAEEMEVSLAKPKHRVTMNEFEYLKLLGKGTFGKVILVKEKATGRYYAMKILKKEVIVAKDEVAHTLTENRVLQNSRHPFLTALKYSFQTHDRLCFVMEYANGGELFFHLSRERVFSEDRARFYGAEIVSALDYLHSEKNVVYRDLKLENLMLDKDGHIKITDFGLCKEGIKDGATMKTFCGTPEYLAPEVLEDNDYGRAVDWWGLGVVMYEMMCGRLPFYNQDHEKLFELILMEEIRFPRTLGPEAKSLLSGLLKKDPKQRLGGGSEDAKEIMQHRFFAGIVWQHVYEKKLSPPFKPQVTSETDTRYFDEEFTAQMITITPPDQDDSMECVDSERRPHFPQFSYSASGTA
# Text: as §1, §2
# VCaP cells = assay: Androgen-induced citron kinase expression, western blotting; format: cell-based; settings: low doses of androgen, 48 hours
# Experimental: (§3) FIG. 1A: LNCaP (top panel) and VCaP cells (bottom panel) were treated with increasing doses of the synthetic androgen R1881 for 48 hours. CIT and j-actin expression were analyzed by western blotting. FIG. 1B: LNCaP (left panel) and VCaP cells (right panel) were treated with increasing doses of the natural androgen dihydrotestosterone (DHT) and analyzed as for FIG. 1A.
# LNCaP cells = assay: as above; format: cell-based; settings: low doses of androgen, 48 hours
# Experimental: as §3
# [4] = mean of at least two independent assays, read-out: Radiometric CitK IC50
# [5] = HEK293T cells transfected with NanoLuc-CITK, Tracer K10 1 μM, 2 hours
# T1 sequence (O14578 whole entry): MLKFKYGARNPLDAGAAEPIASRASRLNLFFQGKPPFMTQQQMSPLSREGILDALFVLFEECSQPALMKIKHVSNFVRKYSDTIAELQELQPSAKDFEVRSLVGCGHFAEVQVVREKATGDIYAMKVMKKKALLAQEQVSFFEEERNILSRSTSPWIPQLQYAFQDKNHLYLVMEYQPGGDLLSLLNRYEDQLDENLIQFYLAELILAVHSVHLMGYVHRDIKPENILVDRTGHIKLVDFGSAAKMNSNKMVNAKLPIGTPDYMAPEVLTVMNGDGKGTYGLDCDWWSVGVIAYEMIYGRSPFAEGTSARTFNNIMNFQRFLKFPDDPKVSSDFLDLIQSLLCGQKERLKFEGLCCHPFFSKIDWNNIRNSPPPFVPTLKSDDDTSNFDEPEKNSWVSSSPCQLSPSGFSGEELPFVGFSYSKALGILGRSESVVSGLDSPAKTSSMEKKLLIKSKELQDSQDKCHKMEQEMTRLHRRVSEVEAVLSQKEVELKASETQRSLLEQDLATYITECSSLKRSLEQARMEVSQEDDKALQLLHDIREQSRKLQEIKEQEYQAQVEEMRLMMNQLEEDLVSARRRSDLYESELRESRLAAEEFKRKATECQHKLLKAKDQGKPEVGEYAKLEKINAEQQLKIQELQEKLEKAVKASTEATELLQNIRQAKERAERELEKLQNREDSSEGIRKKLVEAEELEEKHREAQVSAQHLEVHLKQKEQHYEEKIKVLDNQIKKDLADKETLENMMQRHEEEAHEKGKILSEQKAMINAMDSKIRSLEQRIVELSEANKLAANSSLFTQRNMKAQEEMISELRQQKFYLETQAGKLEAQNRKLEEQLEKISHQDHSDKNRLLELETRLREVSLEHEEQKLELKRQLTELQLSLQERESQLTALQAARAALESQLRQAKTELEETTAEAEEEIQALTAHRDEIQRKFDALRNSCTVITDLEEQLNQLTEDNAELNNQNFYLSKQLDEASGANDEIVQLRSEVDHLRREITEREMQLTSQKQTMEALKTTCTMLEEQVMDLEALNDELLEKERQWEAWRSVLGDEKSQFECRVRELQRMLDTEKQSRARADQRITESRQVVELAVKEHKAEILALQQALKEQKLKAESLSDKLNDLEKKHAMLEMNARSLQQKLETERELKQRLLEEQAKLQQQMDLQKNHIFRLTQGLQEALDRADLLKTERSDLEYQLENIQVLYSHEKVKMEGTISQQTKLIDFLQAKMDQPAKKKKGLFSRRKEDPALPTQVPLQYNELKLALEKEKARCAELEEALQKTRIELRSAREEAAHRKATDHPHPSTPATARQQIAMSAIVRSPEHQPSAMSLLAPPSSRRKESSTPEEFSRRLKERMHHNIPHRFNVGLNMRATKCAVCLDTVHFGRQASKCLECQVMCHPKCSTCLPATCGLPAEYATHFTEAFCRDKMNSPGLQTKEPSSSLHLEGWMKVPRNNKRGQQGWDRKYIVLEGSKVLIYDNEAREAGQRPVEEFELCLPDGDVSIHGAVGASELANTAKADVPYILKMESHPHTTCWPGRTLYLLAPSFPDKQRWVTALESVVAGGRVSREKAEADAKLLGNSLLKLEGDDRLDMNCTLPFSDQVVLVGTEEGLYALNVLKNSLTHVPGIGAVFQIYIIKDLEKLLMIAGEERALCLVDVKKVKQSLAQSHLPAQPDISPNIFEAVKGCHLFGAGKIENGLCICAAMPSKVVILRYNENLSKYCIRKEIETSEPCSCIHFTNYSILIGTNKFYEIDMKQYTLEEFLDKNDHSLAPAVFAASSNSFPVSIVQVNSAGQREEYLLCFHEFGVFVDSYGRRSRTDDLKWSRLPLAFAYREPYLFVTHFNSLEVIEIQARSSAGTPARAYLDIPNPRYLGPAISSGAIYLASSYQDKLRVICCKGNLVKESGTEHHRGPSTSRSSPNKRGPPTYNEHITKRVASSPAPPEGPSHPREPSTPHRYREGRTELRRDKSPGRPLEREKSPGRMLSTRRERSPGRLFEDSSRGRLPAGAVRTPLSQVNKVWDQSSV
SMILES,pIC50 (Citron kinase [1]; [4]),pIC50 (PKAα),pIC50 (ROCK-2),pIC50 (IKKβ),other results
"Cc1cc2c(-c3ccc(NC(=O)[C@H](N)[C@@H](O)C(C)C)cc3C)ccnc2[nH]1 [Compound F-162, (2R,3S)-2-Amino-3-hydroxy-4-methyl-N-[3-methyl-4-(2-methyl-1H-pyrrolo[2,3-b]pyridin-4-yl)phenyl]pentanamide]",8.30,,,,"Kd [2]: 1.9 nM; pIC50 [2, 5]: 8.00"
"CC(C)C[C@@H](N)C(=O)Nc1ccc(-c2ccnc3[nH]ccc23)cc1 [Compound F-9, (2R)-2-Amino-4-methyl-N-[4-(1H-pyrrolo[2,3-b]pyridin-4-yl)phenyl]pentanamide]",7.90,8.15,7.74,6.95,"pIC50 (TRK-B): < 5.52; pIC50 (ROCK-1): 6.64; Kd [2]: 13 nM; pIC50 [2, 5]: 7.17; pIC50 (AUR-B): 6.64; pIC50 (Citron kinase [3]): 8.31; pIC50 (AKT-1): 6.12"
"NC(C(=O)Nc1ccc(-c2ccnc3[nH]ccc23)cc1)C1CC1 (centres unmarked) [Compound F-18, 2-Amino-2-cyclopropyl-N-[4-(1H-pyrrolo[2,3-b]pyridine-4-yl)phenyl]acetamide]",,,,,pIC50 (Citron kinase [3]): 6.92
"COc1cc(-c2ccnc3[nH]ccc23)ccc1NC(=O)[C@H](N)CC(C)C [Compound F-77, (2R)-2-Amino-N-[2-methoxy-4-(1H-pyrrolo[2,3-b]pyridin-4-yl)phenyl]-4-methyl-pentanamide]",,7.59,7.92,6.08,
"Cc1cc2c(-c3ccc(NC(=O)[C@H](N)CC(C)(C)C)cc3C)cncc2[nH]1 [6-Azaindole Control, reference compound]",,,,,"pIC50 (Citron kinase [1]; biochemical assay described in Example 3, read-out: IC50): < 5.52; NanoBRET IC50 (nM) [2, 5]: No binding; KD (nM)* ([2]; in-cell KD from IC50 by Cheng-Prussoff, [Tracer K10] = 1 μM, KD Tracer K10 = 0.23 μM): No binding"
"CC(C)C[C@H](N)C(=O)Nc1ccc(-c2ccnc3[nH]ccc23)cc1 [Compound F-8, (2S)-2-Amino-4-methyl-N-[4-(1H-pyrrolo[2,3-b]pyridin-4-yl)phenyl]pentanamide]",7.27,,,,pIC50 (Citron kinase [3]): 7.52
"CC(C)C[C@@H](N)C(=O)Nc1ccc(-c2ccnc3[nH]ccc23)cc1F [Compound F-70, (2R)-2-Amino-N-[2-fluoro-4-(1H-pyrrolo[2,3-b]pyridin-4-yl)phenyl]-4-methyl-Pentanamide]",7.43,7.37,7.31,5.64,
"N[C@H](Cc1ccccc1)C(=O)Nc1ccc(-c2ccnc3[nH]ccc23)cc1 [Compound F-33, (R)-N-(4-(1H-pyrrolo[2,3-b]pyridin-4-yl)phenyl)-2-amino-3-phenylpropanamide]",,8.52,,,pIC50 (TRK-B): 6.48; pIC50 (ROCK-1): 6.97; pIC50 (AUR-B): 6.98; pIC50 (AKT-1): 6.36
"Cc1cc2c(-c3ccc(NC(=O)[C@H](N)CC(C)C)cc3)ccnc2[nH]1 [Compound F-48, (2R)-2-Amino-4-methyl-N-[4-[2-methyl-1H-pyrrolo[2,3-b]pyridin-4-yl]phenyl]pentanamide]",,< 5.52,< 5.52,6.91,
"Cc1cc2c(-c3ccc(NC(=O)[C@@H](N)[C@H](O)C(C)C)cc3C)ccnc2[nH]1 [Compound F-161, (2S,3R)-2-Amino-3-hydroxy-4-methyl-N-[3-methyl-4-(2-methyl-1H-pyrrolo[2,3-b]pyridin-4-yl)phenyl]pentanamide]",7.72,,,,"Kd [2]: 4.3 nM; pIC50 [2, 5]: 7.64"
"CN[C@H](CC(C)C)C(=O)Nc1ccc(-c2ccnc3[nH]ccc23)cc1 [Compound F-41, (2R)-4-Methyl-2-(methylamino)-N-[4-(1H-pyrrolo[2,3-b]pyridin-4-yl)phenyl]pentanamide]",,8.22,7.96,6.46,
"CC(C)(C)[C@@H](N)C(=O)Nc1ccc(-c2ccnc3[nH]ccc23)cc1 [Compound F-13, (2R)-2-Amino-3,3-dimethyl-N-[4-(1H-pyrrolo[2,3-b]pyridin-4-yl)phenyl]butanamide]",,9.00,7.19,6.63,
"Cc1cc(NC(=O)[C@H](N)CC(C)C)ccc1-c1ccnc2[nH]ccc12 [Compound F-58, (2R)-2-Amino-4-methyl-N-[3-methyl-4-(1H-pyrrolo[2,3-b]pyridin-4-yl)phenyl]pentanamide]",,7.09,6.98,< 5.52,
"N[C@@H](Cc1ccccc1)C(=O)Nc1ccc(-c2ccnc3[nH]ccc23)cc1 [Compound F-32, (S)-N-(4-(1H-pyrrolo[2,3-b]pyridin-4-yl)phenyl)-2-amino-3-phenylpropanamide]",,8.15,,,pIC50 (TRK-B): 6.33; pIC50 (ROCK-1): 6.92; pIC50 (AUR-B): 6.81; pIC50 (AKT-1): 5.96
"Cc1c[nH]c2nccc(-c3ccc(NC(=O)C(N)Cc4ccccc4)cc3)c12 (centres unmarked) [Compound F-135, 2-Amino-N-[4-(3-methyl-1H-pyrrolo[2,3-b]pyridin-4-yl)phenyl]-3-phenyl-propanamide]",,,,,pIC50 (Citron kinase [3]): 6.41
C[C@]1(O)CC[C@H]2[C@@H]3CCC4=CC(=O)CCC4=C3C=C[C@@]21C [Compound R1881],,,,,citron kinase expression (VCaP cells): significant increase; citron kinase expression (LNCaP cells): significant increase
"Cc1cc(NC(=O)[C@H](N)C(C)(C)C)ccc1-c1ccnc2[nH]ccc12 [Compound F-59, (2R)-2-Amino-3,3-dimethyl-N-[3-methyl-4-(1H-pyrrolo[2,3-b]pyridin-4-yl)phenyl]butanamide]",7.31,6.50,6.26,< 5.52,
